The source of these data is the supplement of paper PMC10307832.

The test system of one assay is ChaGo-K-1. Nature of the assay: relative viability (nuclei count vs DMSO), 5 days (fraction); higher = more cells survive. Particulars: first compound 0.6325 µM. The method, boiled down: (§1)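 Relative viability was taken as the ratio of nuclei in treated wells to nuclei in vehicle wells. Lung cancer cell lines in 1536-well plates received compounds by pin tool one day after seeding, either one drug alone or a fixed anchor-drug dose plus five library-drug doses (not always all listed) in √10 steps. Nuclei were counted on 4× images after 5 days of treatment, and values are medians of duplicate plates.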
`COCC1(CO)C(=O)C2CCN1CC2` (stereo not drawn) [PRIMA-1MET] + COc1cccc2cc(-c3nc([C@H]4CC[C@H](C(=O)O)CC4)n4ncnc(N)c34)[nH]c12 [OSI-027] (partner 0.5 µM) had a relative viability of 0.518.
Same read-out and setting: for `COCC1(CO)C(=O)C2CCN1CC2` (stereo not drawn) [PRIMA-1MET] + N=C(N)NC(=N)NCCc1ccccc1 [Phenformin] (partner 250 µM) the value was 0.439; for `COCC1(CO)C(=O)C2CCN1CC2` (stereo not drawn) [PRIMA-1MET] + Cc1nc(Nc2ncc(C(=O)Nc3c(C)cccc3Cl)s2)cc(N2CCN(CCO)CC2)n1 [Dasatinib] (partner 0.075 µM), 0.567.

Still in this assay, the particulars now being: first compound 2 µM.
Regarding `COCC1(CO)C(=O)C2CCN1CC2` (stereo not drawn) [PRIMA-1MET] + Cc1cc(Nc2cc(N3CCN(C)CC3)nc(Sc3ccc(NC(=O)C4CC4)cc3)n2)n[nH]1 [Tozasertib] (partner 0.1 µM), the relative viability came to 0.213.
Consider `COCC1(CO)C(=O)C2CCN1CC2` (stereo not drawn) [PRIMA-1MET] + COc1cc2c(Oc3ccc(NC(=O)C4(C(=O)Nc5ccc(F)cc5)CC4)cc3F)ccnc2cc1OCCCN1CCOCC1 [Foretinib] (partner 0.25 µM), for which the relative viability was found to be 0.911.
Still for that read-out and setting: to `COCC1(CO)C(=O)C2CCN1CC2` (stereo not drawn) [PRIMA-1MET] + COc1cccc2cc(-c3nc([C@H]4CC[C@H](C(=O)O)CC4)n4ncnc(N)c34)[nH]c12 [OSI-027] (partner 0.5 µM) belongs 0.522; to `COCC1(CO)C(=O)C2CCN1CC2` (stereo not drawn) [PRIMA-1MET] + N=C(N)NC(=N)NCCc1ccccc1 [Phenformin] (partner 250 µM), 0.514.
The same measure, in the same setting: for `COCC1(CO)C(=O)C2CCN1CC2` (stereo not drawn) [PRIMA-1MET] + Cc1nc(Nc2ncc(C(=O)Nc3c(C)cccc3Cl)s2)cc(N2CCN(CCO)CC2)n1 [Dasatinib] (partner 0.075 µM) the value was 0.687.

Staying with this assay, now noted: first compound 6.325 µM.
As for `COCC1(CO)C(=O)C2CCN1CC2` (stereo not drawn) [PRIMA-1MET] + Cc1cc(Nc2cc(N3CCN(C)CC3)nc(Sc3ccc(NC(=O)C4CC4)cc3)n2)n[nH]1 [Tozasertib] (partner 0.1 µM), the relative viability turned out to be 0.224.
In turn, `COCC1(CO)C(=O)C2CCN1CC2` (stereo not drawn) [PRIMA-1MET] + COc1cc2c(Oc3ccc(NC(=O)C4(C(=O)Nc5ccc(F)cc5)CC4)cc3F)ccnc2cc1OCCCN1CCOCC1 [Foretinib] (partner 0.25 µM) gave a relative viability of 1.01.
As to `COCC1(CO)C(=O)C2CCN1CC2` (stereo not drawn) [PRIMA-1MET] + COc1cccc2cc(-c3nc([C@H]4CC[C@H](C(=O)O)CC4)n4ncnc(N)c34)[nH]c12 [OSI-027] (partner 0.5 µM), the relative viability stood at 0.53.
As to `COCC1(CO)C(=O)C2CCN1CC2` (stereo not drawn) [PRIMA-1MET] + N=C(N)NC(=N)NCCc1ccccc1 [Phenformin] (partner 250 µM), the relative viability turned out to be 0.503.
Same read-out and setting: for `COCC1(CO)C(=O)C2CCN1CC2` (stereo not drawn) [PRIMA-1MET] + Cc1nc(Nc2ncc(C(=O)Nc3c(C)cccc3Cl)s2)cc(N2CCN(CCO)CC2)n1 [Dasatinib] (partner 0.075 µM) the value was 0.54.

The assay is the same for the next values; noted with them: first compound 20 µM.
On to `COCC1(CO)C(=O)C2CCN1CC2` (stereo not drawn) [PRIMA-1MET] + Cc1cc(Nc2cc(N3CCN(C)CC3)nc(Sc3ccc(NC(=O)C4CC4)cc3)n2)n[nH]1 [Tozasertib] (partner 0.1 µM), for which the relative viability was found to be 0.207.
Still for that read-out and setting: for `COCC1(CO)C(=O)C2CCN1CC2` (stereo not drawn) [PRIMA-1MET] + COc1cc2c(Oc3ccc(NC(=O)C4(C(=O)Nc5ccc(F)cc5)CC4)cc3F)ccnc2cc1OCCCN1CCOCC1 [Foretinib] (partner 0.25 µM) the value was 0.859.
Consider `COCC1(CO)C(=O)C2CCN1CC2` (stereo not drawn) [PRIMA-1MET] + COc1cccc2cc(-c3nc([C@H]4CC[C@H](C(=O)O)CC4)n4ncnc(N)c34)[nH]c12 [OSI-027] (partner 0.5 µM), for which the relative viability is 0.448.
The same measure, in the same setting: to `COCC1(CO)C(=O)C2CCN1CC2` (stereo not drawn) [PRIMA-1MET] + N=C(N)NC(=N)NCCc1ccccc1 [Phenformin] (partner 250 µM) belongs 0.459; to `COCC1(CO)C(=O)C2CCN1CC2` (stereo not drawn) [PRIMA-1MET] + Cc1nc(Nc2ncc(C(=O)Nc3c(C)cccc3Cl)s2)cc(N2CCN(CCO)CC2)n1 [Dasatinib] (partner 0.075 µM), 0.363.

The subject of the next assay is Calu-6. The description is as above. The settings on record: first compound 0.2 µM. The method in brief:
as §1
`COCC1(CO)C(=O)C2CCN1CC2` (stereo not drawn) [PRIMA-1MET] + COc1cc2c(Oc3ccc(NC(=O)C4(C(=O)Nc5ccc(F)cc5)CC4)cc3F)ccnc2cc1OCCCN1CCOCC1 [Foretinib] (partner 0.25 µM): the relative viability was 0.918.

The same assay, now with this note: first compound 0.6325 µM.
`COCC1(CO)C(=O)C2CCN1CC2` (stereo not drawn) [PRIMA-1MET] + COc1cc2c(Oc3ccc(NC(=O)C4(C(=O)Nc5ccc(F)cc5)CC4)cc3F)ccnc2cc1OCCCN1CCOCC1 [Foretinib] (partner 0.25 µM) returned a relative viability of 0.649.

The assay is the same for the next values; noted with them: first compound 2 µM.
The compound `COCC1(CO)C(=O)C2CCN1CC2` (stereo not drawn) [PRIMA-1MET] + COc1cc2c(Oc3ccc(NC(=O)C4(C(=O)Nc5ccc(F)cc5)CC4)cc3F)ccnc2cc1OCCCN1CCOCC1 [Foretinib] (partner 0.25 µM) yielded a relative viability of 0.899.

Still in this assay, the particulars now being: first compound 6.325 µM.
In turn, `COCC1(CO)C(=O)C2CCN1CC2` (stereo not drawn) [PRIMA-1MET] + COc1cc2c(Oc3ccc(NC(=O)C4(C(=O)Nc5ccc(F)cc5)CC4)cc3F)ccnc2cc1OCCCN1CCOCC1 [Foretinib] (partner 0.25 µM) registered a relative viability of 0.904.

The same assay, now with this note: first compound 20 µM.
Turning to `COCC1(CO)C(=O)C2CCN1CC2` (stereo not drawn) [PRIMA-1MET] + COc1cc2c(Oc3ccc(NC(=O)C4(C(=O)Nc5ccc(F)cc5)CC4)cc3F)ccnc2cc1OCCCN1CCOCC1 [Foretinib] (partner 0.25 µM), the relative viability is 0.335.

For the next assay, the system named is NCI-H1623. Described as above. Particulars: first compound 0.2 µM. The method, boiled down: as §1
As to `COCC1(CO)C(=O)C2CCN1CC2` (stereo not drawn) [PRIMA-1MET] + Cc1cc(Nc2cc(N3CCN(C)CC3)nc(Sc3ccc(NC(=O)C4CC4)cc3)n2)n[nH]1 [Tozasertib] (partner 0.1 µM), the relative viability is 0.474.
Turning to `COCC1(CO)C(=O)C2CCN1CC2` (stereo not drawn) [PRIMA-1MET] + COc1cc2c(Oc3ccc(NC(=O)C4(C(=O)Nc5ccc(F)cc5)CC4)cc3F)ccnc2cc1OCCCN1CCOCC1 [Foretinib] (partner 0.25 µM), the relative viability worked out at 0.789.
Still for that read-out and setting: to `COCC1(CO)C(=O)C2CCN1CC2` (stereo not drawn) [PRIMA-1MET] + COc1cccc2cc(-c3nc([C@H]4CC[C@H](C(=O)O)CC4)n4ncnc(N)c34)[nH]c12 [OSI-027] (partner 0.5 µM) belongs 0.374; to `COCC1(CO)C(=O)C2CCN1CC2` (stereo not drawn) [PRIMA-1MET] + N=C(N)NC(=N)NCCc1ccccc1 [Phenformin] (partner 250 µM), 0.522.
For `COCC1(CO)C(=O)C2CCN1CC2` (stereo not drawn) [PRIMA-1MET] + Cc1nc(Nc2ncc(C(=O)Nc3c(C)cccc3Cl)s2)cc(N2CCN(CCO)CC2)n1 [Dasatinib] (partner 0.075 µM), the relative viability stood at 0.517.
